In patent US20060105940A1, “Compound useful in the treatment or prevention of cognitive disorders associated with diabetes and associated methods” (Axonyx, Inc., priority 2004, published 2006):
Where a name gives a salt, the structure may show the parent alone. Read-outs that look alike come from different tables or passages of the source.

Columns and labels:
human AChE [1] = biological target: T1, human AChE (Homo sapiens, UniProt P22303); assay: Inhibition of human erythrocyte AChE activity (IC50); type: biochemical; settings: human AChE freshly prepared from human erythrocytes
T1 construct: use human BChE and AChE freshly prepared from human plasma and erythrocytes, respectively; from tissue; host or cells: human erythrocytes
Excerpt: (§1) Potential cholinesterase agents may be evaluated for potency in vitro by assaying its inhibitory effect on electric eel and human red blood cell ACHE and human plasma BCHE activity in cell-free extracts (See U.S. Pat. Nos. 6,495,700; 5,409,948; 5,171,750; 5,378,723; and 5,998,460). Studies also commonly utilize aged rat models to evaluate effectiveness of therapeutic drug leads in ameliorating cognitive disorders. […] (See, Greig, N. H. et al. “Butyrylcholinesterase: Its Function and Inhibition.” (ed., Giacobini, E.) Martin Dunitz, Ltd., London, 69-90, 2003, Chapter 6: Butyrylcholinesterase: its selective inhibition and relevance to Alzheimer's disease therapy at pages 80-81).
(§2) (See, Greig, N. H. et al. at page 78). These biological activity assays use human BChE and AChE freshly prepared from human plasma and erythrocytes, respectively.
(§3) These biological activity assays use human BChE and AChE freshly prepared from human plasma and erythrocytes, respectively.

[2] = tested on: aged (21-22 month old) Fisher-344 rats; assay: Stone maze cognitive ability test after i.p. MHI tartrate (Example VII); type: in vivo, rat; settings: 0.5 to 1.0 mg per kg intraperitoneal, daily, aged Fisher-344 rats
Experimental: (See U.S. Pat. No. 6,683,105). MHI tartrate is administered in dosages in the range of 0.5 to 1.0 mg per kg of subject body weight. This dosage is administered daily, for example, 1-3 times per day. Effectiveness of MHI tartrate is measured by testing cognitive ability before and after administration. For instance, rats may be tested using a “Stone maze” in which a maze constructed of translucent plastic containing a grid floor wired for scrambled foot shocks surrounded by opaque gray walls to minimize effects of non-MHI tartrate related variables. Rats are given 10 seconds in which to navigate the maze. […] Similar cognitive tests, for instance timed, objective memorization tests, may be used on other subjects, such as humans.

[3] = Solubility in water / aqueous solution; type: physicochemical; settings: for Solubility (in words): aqueous solution, free base versus tartrate acid addition salt
human BChE [4] = biological target: T2, human BChE (Homo sapiens, UniProt P06276); assay: Inhibition of human plasma BChE activity (IC50); type: biochemical; settings: human BChE freshly prepared from human plasma
T2 construct: use human BChE and AChE freshly prepared from human plasma and erythrocytes, respectively; from tissue; host or cells: human plasma
Excerpt: as §1, §2, §3

human AChE [5] = biological target: T1, human AChE; settings: human AChE freshly prepared from human erythrocytes; see Greig et al. page 78; cited from earlier work
human BChE [6] = biological target: T2, human BChE; settings: human BChE freshly prepared from human plasma; see Greig et al. page 78; cited from earlier work
[7] = tested on: aged (24-26-month-old) Fischer-344 rats; settings: Stone 14-unit T-maze, Greig et al. 2003; cited from earlier work

T2 sequence (P06276 29-602): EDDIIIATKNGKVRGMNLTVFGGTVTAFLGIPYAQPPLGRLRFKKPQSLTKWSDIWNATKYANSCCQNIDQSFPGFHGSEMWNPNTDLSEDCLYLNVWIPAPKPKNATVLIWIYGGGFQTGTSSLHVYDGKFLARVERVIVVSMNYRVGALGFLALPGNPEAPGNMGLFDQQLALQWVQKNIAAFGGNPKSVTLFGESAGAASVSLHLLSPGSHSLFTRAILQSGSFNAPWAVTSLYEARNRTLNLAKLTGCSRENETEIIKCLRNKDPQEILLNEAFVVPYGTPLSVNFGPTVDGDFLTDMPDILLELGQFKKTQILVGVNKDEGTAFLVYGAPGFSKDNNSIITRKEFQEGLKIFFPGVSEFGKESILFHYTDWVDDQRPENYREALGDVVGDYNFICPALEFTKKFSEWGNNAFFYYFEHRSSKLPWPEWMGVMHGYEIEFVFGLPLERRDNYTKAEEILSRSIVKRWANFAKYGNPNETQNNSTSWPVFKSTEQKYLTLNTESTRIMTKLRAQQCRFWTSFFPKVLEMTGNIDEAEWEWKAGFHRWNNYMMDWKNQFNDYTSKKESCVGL
T1 sequence (P22303 32-617 isoform P22303-2 limits assumed): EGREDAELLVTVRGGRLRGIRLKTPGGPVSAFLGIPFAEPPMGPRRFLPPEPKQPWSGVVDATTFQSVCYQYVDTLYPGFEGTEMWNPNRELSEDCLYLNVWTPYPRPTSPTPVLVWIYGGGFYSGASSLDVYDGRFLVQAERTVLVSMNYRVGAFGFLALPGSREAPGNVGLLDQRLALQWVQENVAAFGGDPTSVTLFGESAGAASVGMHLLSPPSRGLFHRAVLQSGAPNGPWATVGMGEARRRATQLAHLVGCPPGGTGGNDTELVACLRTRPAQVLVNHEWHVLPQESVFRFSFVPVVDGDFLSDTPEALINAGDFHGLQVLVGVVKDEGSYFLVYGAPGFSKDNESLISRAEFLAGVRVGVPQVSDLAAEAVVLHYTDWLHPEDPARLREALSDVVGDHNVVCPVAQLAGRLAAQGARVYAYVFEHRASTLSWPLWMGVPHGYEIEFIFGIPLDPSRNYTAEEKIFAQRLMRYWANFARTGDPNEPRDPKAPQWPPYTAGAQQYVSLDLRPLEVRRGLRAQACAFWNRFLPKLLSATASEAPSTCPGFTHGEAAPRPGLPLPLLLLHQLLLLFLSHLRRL

Row | Compound | IC50 (human AChE [1]) [nM] | Cognitive ability (maze navigation) [2] | Solubility (in words) [3] | Solubility (g per 100 ml Saturated H2O solution at room temperature) [3] [g g per 100 ml] | IC50 (human BChE [4]) [nM] | Solubility ([3]; listed as MHI) | IC50 (human AChE [5]) [nM] | IC50 (human BChE [6]) [nM] | Augmenting memory processing [7]
1 | CC(C)c1ccc(NC(=O)Oc2ccc3c(c2)C2(C)CCNC2N3)cc1 [MHI tartrate, tartrate acid addition salt of the compound (−)-(3aS)-3a-methyl-1,2,3,3a,8,8a-hexahydropyrrolo-[2,3-b]indol-5-yl N-4′-isopropylphenylcarbamate] | 110 ± 15 | increase cognitive ability | highly soluble | 1 | 1 ± 0.1 |  |  |  | 
2 | CC(C)c1ccc(NC(=O)Oc2ccc3c(c2)[C@]2(C)CCN(CCc4ccccc4)[C@@H]2N3C)cc1 [phenethylcymserine, reference compound] |  |  | insoluble |  |  |  |  |  | 
3 | CC(C)c1ccc(NC(=O)Oc2ccc3c(c2)C2(C)CCNC2N3)cc1 (single isomer, unassigned; (-)) [MHI (Base)] |  |  |  | 0.05 |  | about 0.0005 g/ml | 110 ± 15 | 1 ± 0.1 | potent in augmenting memory processing
